# Experiments:
# human estrogen receptor = biological target: T1, human estrogen receptor (Homo sapiens, UniProt P03372); conditions: Murdter et al., Hum. Mol. Genet. 21:1145 (2012); cited from earlier work
# T1 sequence (P03372 1-595): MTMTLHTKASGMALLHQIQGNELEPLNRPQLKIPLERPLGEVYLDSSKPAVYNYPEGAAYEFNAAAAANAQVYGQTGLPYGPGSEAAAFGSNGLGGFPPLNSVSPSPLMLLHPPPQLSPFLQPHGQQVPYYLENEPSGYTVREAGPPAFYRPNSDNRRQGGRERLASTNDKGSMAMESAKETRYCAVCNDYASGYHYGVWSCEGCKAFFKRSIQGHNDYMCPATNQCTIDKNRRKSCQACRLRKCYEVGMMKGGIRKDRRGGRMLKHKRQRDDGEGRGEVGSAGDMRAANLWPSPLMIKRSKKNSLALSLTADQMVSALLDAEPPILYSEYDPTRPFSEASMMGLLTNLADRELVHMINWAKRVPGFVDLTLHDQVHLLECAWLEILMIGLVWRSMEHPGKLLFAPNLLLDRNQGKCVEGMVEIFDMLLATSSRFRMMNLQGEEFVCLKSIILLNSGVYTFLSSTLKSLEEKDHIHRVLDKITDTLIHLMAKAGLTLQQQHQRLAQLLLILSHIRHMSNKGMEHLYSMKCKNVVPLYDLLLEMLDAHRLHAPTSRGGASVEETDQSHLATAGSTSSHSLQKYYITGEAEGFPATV
# circulating IGF-1 = conditions: Campbell et al., J. Clin. Pathol: Mol Pathol. 54:307 (2001); cited from earlier work
# serum IGF-1 [1] = test: Third clinical study: IGF-1 after 6 weeks of trans-clomiphene compared to AndroGel; assay type: in vivo, human
# [2] = tested on: corticotropin, prolactin or thyroid stimulating hormone; test: Studies on the effects of enclomiphine on men: other hormones secreted by the pituitary; assay type: in vivo, human
# Description: The present invention provides methods for reducing IGF-1 levels in a subject in need of such treatment. […] Clomiphene is thought to exert its effects at the level of the hypothamus-pituitary axis by specifically stimulating secretion of the gonadotropic hormones LH and FSH. Neither of these gonadotropic hormones is known to play a general role in establishment or proliferation of cancer. Studies on the effects of enclomiphine on men found no changes in other hormones secreted by the pituitary such as corticotropin, prolactin or thyroid stimulating hormone. Growth hormone (GH), secreted by the pituitary is known to drive production of IGF-1 by the liver. Without wishing to be bound by theory it is believed that trans-clomiphene suppresses the pituitary production of GH thereby reducing the endocrine stimulated production of liver IGF-1. The activity of trans-clomiphene in reducing serum IGF-1 levels, renders the compositions useful for treating a variety of cancers having strong expression or overexpression of IGF-1 as a common underlying etiology.
# serum IGF-1 [3] = test: Second clinical study: serum IGF-1 after three months of trans-clomiphene or placebo; assay type: in vivo, human; conditions: for Mean Change from Baseline (st dev): P<0.0001 vs placebo; for mean reduction in serum IGF-1 levels: three months
# Method: Another study measured serum IGF-1 levels in human males with low/low-normal testosterone following treatment with trans-clomiphene. Briefly 38 males were administered trans-clomiphene at 12.5 mg per day, 35 males were administered trans-clomiphene at 25 mg per day and 43 males were administered a placebo (control group). Serum IGF-1 levels were measured by immunoenzymometric assay as described above at baseline and following three months of treatment with trans-clomiphene or placebo for each treatment group.
# [4] = tested on: serum (circulating) IGF-1; test: First clinical study: serum IGF-1 by immunoenzymometric assay, trans-clomiphene vs Testim over six months; assay type: in vivo, human
# Method: The effect of the isolated trans-clomiphene isomer on free serum IGF-1 was tested in three separate clinical studies.
# Adult male subjects with a morning total testosterone blood level of <300 ng/dl and a serum LH of <15 IU/ml who had previously undergone between 6 months and two years of topical testosterone therapy were administered either trans-clomiphene (25 mg/day via oral capsule) or a topical testosterone gel (Testim®, 50 mg applied daily) over a six month period according to the first study. Following an initial screening visit (Visit 1-V1), topical testosterone replacement therapy in the subjects was discontinued for either three weeks or three months. At the end of the washout period (Visit 2-V2), quantitative determination of baseline serum (circulating) IGF-1 measurements were made in the subjects by immunoenzymometric assay (Immunodiagnostics Systems Ltd., OCTEIA® IGF-1 kit) and treatment with either trans-clomiphene or Testim® was initiated. Follow-up measurements were taken at 3 months post initial dose (Visit 4-V4), 6 months post initial dose (Visit 5-V5) and one month after cessation of treatment (Visit 6-V6). Seven subjects completed six months of trans-clomiphene therapy and five subjects completed six months of Testim® therapy. The results are presented at FIG. 1. At baseline (V2), serum IGF-1 levels in both patient groups averaged about 140 ng/ml. […] Thus, circulating serum IGF-1 levels were reduced over 40% in subjects administered trans-clomiphene whereas exogenous testosterone had no effect on circulating serum IGF-1. Importantly, aside from low testosterone, these subjects were otherwise healthy—thus, administering trans-clomiphene provides an effective method for reducing serum levels of IGF-1 produced by the liver (i.e. growth-hormone dependent IGF-1).
smiles,measurement,setting,value
CCN(CC)CCOc1ccc(C(=C(Cl)c2ccccc2)c2ccc(O)cc2)cc1 [4-hydroxy-trans-clomiphene],ligand strength for the human estrogen receptor,human estrogen receptor,strong ligands
"CCC(=C(c1ccccc1)c1ccc(OCCN(C)C)cc1)c1ccccc1 [tamoxifen, 2-[4-(1,2-diphenylbut-1-enyl)phenoxy]-N,N-dimethyl-ethanamine]",change to circulating IGF-1 levels after treatment,circulating IGF-1,no change
CCN(CC)CCOc1ccc(/C(=C(/Cl)c2ccccc2)c2ccccc2)cc1 [trans-clomiphene],IGF-1 - Naïve men,"serum IGF-1 [1]; 6.25 mg daily group, n=12, baseline",101 ± 43 µg/L
same,IGF-1 - Treated men,"serum IGF-1 [1]; 6.25 mg daily, n=12, after 6 weeks, p = 0.008 compared to AndroGel (MWW)",54 ± 30 µg/L
same,IGF-1 - Naïve men,"serum IGF-1 [1]; 12.5 mg daily group, n=10, baseline",94 ± 47 µg/L
same,IGF-1 - Treated men,"serum IGF-1 [1]; 12.5 mg daily, n=10, after 6 weeks, p = 0.0035 compared to AndroGel (MWW)",50 ± 24 µg/L
same,IGF-1 - Naïve men,"serum IGF-1 [1]; 25 mg daily group, n=12, baseline",96 ± 45 µg/L
same,IGF-1 - Treated men,"serum IGF-1 [1]; 25 mg daily, n=12, after 6 weeks, p = 0.008 compared to AndroGel (MWW)",62 ± 42 µg/L
same,"changes in other hormones secreted by the pituitary (corticotropin, prolactin, thyroid stimulating hormone)",[2],no changes
same,Baseline IGF-1 (st dev),"serum IGF-1 [3]; 12.5 mg per day group, n=38, before treatment",115.2 (35.11) μg/L
same,Mean Change from Baseline (st dev),"serum IGF-1 [3]; 12.5 mg per day, n=38, month 3",−36.8 (22.3) μg/L
same,Month 3 IGF-1 (st dev),"serum IGF-1 [3]; 12.5 mg per day, n=38, three months of treatment",77.3 (30.8) μg/L
same,mean reduction in serum IGF-1 levels,serum IGF-1 [3]; 12.5 mg per day,~32%
same,Baseline IGF-1 (st dev),"serum IGF-1 [3]; 25 mg per day group, n=35, before treatment",107.2 (39.4) μg/L
same,Mean Change from Baseline (st dev),"serum IGF-1 [3]; 25 mg per day, n=35, month 3",−38.3 (29.5) μg/L
same,Month 3 IGF-1 (st dev),"serum IGF-1 [3]; 25 mg per day, n=35, three months of treatment",70.4 (38.6) μg/L
same,mean reduction in serum IGF-1 levels,serum IGF-1 [3]; 25 mg per day,36%
same,serum IGF-1 level at baseline (V2),"[4]; group average at end of washout, before treatment, hypogonadal adult males",about 140 ng/ml
same,serum IGF-1 level after 3 months of treatment (V4),"[4]; trans-clomiphene 25 mg/day oral capsule, n=7",below 80 ng/ml
same,serum IGF-1 after 6 months of treatment (V5),[4]; trans-clomiphene 25 mg/day oral or Testim 50 mg daily topical,remained depressed
same,reduction of circulating serum IGF-1,"[4]; trans-clomiphene 25 mg/day, vs baseline",over 40%

# Source: patent publication US9687458B2, “Trans-clomiphene for use in cancer therapy” (REPROS THERAPEUTICS INC., priority 2012, dated 2017)
